The kinase profiling compilation of Christmann-Franck et al. (2016)

Key:
Experiment in all cases: KINOMEscan competition binding
Settings in all cases: compound 10.0 µM
[1] = target: PIP4K2B (human) (UniProt P78356)
[2] = target: RPS6KA6 KD2 (human) (UniProt Q9UK32)
[3] = system: FLT3 (human), P36888 [D835H]
[4] = target: RIOK3 (human) (UniProt O14730)
[5] = target: STK33 (human) (UniProt Q9BYT3)
[6] = target: SRPK2 (human) (UniProt P78362)
[7] = target: CSNK1G1 (human) (UniProt Q9HCP0)
[8] = target: RIPK2 (human) (UniProt O43353)
[9] = system: FLT3 (human), P36888 [ITD]
[10] = target: PHKG2 (human) (UniProt P15735)
[11] = target: DMPK (human) (UniProt Q09013)
[12] = target: PIP5K1A (human) (UniProt Q99755)
[13] = target: TNK1 (human) (UniProt Q13470)
[14] = target: BMP2K (human) (UniProt Q9NSY1)
[15] = target: PLK4 (human) (UniProt O00444)
[16] = target: CSNK1D (human) (UniProt P48730)
[17] = system: FLT3 (human), P36888 [N841I]
[18] = target: BMPR1B (human) (UniProt O00238)
[19] = target: STK17A (human) (UniProt Q9UEE5)
[20] = target: STK11 (human) (UniProt Q15831)
[21] = target: SRPK3 (human) (UniProt Q9UPE1)
[22] = target: ACVR1 (human) (UniProt Q04771)
[23] = target: PIM2 (human) (UniProt Q9P1W9)
[24] = target: PRKD3 (human) (UniProt O94806)
[25] = system: KIT (human), P10721 [V559D]
[26] = target: AURKB (human) (UniProt Q96GD4)
[27] = system: FLT3 (human), P36888 [D835Y]
[28] = target: TAOK3 (human) (UniProt Q9H2K8)
[29] = target: STK24 (human) (UniProt Q9Y6E0)
[30] = target: MAP4K4 (human) (UniProt O95819)
[31] = target: BRSK2 (human) (UniProt Q8IWQ3)
[32] = target: CSNK1G3 (human) (UniProt Q9Y6M4)
[33] = target: MYLK3 (human) (UniProt Q32MK0)
[34] = target: TTK (human) (UniProt P33981)
[35] = target: MAP4K2 (human) (UniProt Q12851)
[36] = target: RPS6KA2 KD2 (human) (UniProt Q15349)
[37] = target: TGFBR2 (human) (UniProt P37173)
[38] = target: CHUK (human) (UniProt O15111)
[39] = target: MAPK8 (human) (UniProt P45983)
[40] = target: GSK3A (human) (UniProt P49840)
[41] = target: PDGFRB (human) (UniProt P09619)
[42] = target: MYLK4 (human) (UniProt Q86YV6)

STK11 (human), sequence (Q15831 whole entry, looked up): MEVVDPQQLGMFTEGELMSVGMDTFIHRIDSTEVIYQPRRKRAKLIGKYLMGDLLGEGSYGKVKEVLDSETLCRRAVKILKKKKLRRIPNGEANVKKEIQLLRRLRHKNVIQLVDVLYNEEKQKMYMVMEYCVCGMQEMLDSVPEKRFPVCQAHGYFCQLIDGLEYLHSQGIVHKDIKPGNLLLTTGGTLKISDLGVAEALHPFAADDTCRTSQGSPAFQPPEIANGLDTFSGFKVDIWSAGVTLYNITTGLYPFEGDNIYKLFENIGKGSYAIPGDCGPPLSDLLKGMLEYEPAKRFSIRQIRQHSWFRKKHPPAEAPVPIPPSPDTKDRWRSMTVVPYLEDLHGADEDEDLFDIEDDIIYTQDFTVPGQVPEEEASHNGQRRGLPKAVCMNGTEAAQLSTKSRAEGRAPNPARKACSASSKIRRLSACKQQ
PIM2 (human), sequence (Q9P1W9 whole entry, looked up): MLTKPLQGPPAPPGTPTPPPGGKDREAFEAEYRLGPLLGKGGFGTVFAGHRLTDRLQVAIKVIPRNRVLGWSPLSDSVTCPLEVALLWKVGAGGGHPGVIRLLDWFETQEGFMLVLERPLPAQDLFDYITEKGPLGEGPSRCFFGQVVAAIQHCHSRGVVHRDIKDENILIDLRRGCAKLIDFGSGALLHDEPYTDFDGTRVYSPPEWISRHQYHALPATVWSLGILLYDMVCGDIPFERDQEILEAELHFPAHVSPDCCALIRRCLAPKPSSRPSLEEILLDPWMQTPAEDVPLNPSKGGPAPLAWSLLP
CSNK1G3 (human), sequence (Q9Y6M4 whole entry, looked up): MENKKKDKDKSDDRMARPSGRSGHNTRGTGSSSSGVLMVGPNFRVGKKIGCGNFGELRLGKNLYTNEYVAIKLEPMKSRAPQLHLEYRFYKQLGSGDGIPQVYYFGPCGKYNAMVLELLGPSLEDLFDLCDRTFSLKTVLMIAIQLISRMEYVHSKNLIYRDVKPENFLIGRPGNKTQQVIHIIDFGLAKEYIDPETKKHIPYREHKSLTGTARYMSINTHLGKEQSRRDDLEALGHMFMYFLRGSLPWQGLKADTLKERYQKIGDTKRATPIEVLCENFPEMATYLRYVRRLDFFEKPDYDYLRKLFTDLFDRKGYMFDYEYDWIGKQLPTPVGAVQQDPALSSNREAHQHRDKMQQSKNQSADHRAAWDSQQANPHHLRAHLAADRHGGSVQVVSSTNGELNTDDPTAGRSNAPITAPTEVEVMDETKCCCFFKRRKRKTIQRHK
BMPR1B (human), sequence (O00238 whole entry, looked up): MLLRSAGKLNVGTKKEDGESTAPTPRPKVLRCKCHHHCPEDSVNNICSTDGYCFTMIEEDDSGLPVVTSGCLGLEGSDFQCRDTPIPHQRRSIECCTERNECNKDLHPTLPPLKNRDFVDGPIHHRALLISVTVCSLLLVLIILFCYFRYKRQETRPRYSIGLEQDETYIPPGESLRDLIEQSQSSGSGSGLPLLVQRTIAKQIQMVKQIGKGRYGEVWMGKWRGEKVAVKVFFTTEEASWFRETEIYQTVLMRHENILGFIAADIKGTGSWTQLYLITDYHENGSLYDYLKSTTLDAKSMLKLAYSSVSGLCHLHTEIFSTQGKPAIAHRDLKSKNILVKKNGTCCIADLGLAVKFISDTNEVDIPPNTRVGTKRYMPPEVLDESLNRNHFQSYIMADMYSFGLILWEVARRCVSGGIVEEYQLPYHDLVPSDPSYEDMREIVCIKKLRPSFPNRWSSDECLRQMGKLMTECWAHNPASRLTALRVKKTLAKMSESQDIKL
SRPK3 (human), sequence (Q9UPE1 whole entry, looked up): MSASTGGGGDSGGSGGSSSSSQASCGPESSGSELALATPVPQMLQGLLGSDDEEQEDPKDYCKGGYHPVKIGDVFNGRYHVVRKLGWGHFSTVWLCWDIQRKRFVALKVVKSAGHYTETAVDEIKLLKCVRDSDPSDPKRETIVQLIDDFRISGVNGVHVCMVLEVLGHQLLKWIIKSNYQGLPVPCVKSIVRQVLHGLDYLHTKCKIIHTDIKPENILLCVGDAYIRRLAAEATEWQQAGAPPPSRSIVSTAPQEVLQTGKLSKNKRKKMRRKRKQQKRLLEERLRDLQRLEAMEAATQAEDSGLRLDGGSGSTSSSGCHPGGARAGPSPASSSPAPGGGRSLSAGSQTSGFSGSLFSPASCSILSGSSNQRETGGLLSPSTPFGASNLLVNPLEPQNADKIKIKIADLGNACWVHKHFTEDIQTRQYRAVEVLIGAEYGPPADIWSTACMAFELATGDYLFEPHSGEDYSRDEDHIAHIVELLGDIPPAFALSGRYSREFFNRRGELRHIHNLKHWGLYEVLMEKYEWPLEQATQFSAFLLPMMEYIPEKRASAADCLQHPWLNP
RPS6KA6 KD2 (human), sequence (Q9UK32 whole entry, looked up): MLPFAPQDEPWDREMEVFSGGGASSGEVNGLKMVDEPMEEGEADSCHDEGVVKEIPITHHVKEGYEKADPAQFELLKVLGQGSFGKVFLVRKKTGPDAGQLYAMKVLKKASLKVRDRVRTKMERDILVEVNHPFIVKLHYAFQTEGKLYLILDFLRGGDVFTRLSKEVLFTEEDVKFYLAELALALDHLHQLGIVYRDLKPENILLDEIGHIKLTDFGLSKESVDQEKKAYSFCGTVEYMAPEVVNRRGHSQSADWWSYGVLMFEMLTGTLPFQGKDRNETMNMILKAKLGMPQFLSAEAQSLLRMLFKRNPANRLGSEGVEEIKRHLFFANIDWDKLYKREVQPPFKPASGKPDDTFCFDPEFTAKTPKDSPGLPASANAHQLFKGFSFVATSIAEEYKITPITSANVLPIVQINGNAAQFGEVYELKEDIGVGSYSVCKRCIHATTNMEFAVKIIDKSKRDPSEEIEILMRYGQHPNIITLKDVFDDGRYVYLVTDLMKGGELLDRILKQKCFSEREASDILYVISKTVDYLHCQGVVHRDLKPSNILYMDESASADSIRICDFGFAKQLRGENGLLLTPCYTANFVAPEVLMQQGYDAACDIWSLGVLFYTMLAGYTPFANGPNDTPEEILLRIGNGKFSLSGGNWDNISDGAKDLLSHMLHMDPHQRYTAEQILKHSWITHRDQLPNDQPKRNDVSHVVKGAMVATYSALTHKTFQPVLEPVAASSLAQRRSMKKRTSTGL
MAPK8 (human), sequence (P45983 whole entry, looked up): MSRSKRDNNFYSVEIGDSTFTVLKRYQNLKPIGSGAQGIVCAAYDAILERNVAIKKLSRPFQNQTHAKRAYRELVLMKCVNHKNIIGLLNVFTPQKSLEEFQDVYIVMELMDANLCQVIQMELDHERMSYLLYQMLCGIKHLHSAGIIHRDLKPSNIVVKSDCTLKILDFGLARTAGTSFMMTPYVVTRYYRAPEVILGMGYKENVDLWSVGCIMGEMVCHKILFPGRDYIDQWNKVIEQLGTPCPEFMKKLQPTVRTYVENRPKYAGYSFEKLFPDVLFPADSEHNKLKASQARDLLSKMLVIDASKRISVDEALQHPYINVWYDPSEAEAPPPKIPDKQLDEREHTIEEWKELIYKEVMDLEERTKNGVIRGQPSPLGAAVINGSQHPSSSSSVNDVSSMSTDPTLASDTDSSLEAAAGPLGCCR
GSK3A (human), sequence (P49840 whole entry, looked up): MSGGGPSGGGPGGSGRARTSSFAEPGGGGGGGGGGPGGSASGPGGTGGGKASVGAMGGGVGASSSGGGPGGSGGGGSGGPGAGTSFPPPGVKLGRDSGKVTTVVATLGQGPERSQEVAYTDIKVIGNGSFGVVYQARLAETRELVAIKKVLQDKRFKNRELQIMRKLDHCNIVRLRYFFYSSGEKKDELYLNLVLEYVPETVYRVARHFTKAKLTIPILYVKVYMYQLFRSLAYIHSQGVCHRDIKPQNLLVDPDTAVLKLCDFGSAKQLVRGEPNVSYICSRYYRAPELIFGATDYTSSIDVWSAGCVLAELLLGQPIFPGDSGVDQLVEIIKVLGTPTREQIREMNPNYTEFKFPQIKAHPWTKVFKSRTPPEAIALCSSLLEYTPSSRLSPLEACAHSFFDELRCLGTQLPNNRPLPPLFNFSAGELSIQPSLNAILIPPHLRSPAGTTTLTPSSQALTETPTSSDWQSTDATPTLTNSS
TTK (human), sequence (P33981 whole entry, looked up): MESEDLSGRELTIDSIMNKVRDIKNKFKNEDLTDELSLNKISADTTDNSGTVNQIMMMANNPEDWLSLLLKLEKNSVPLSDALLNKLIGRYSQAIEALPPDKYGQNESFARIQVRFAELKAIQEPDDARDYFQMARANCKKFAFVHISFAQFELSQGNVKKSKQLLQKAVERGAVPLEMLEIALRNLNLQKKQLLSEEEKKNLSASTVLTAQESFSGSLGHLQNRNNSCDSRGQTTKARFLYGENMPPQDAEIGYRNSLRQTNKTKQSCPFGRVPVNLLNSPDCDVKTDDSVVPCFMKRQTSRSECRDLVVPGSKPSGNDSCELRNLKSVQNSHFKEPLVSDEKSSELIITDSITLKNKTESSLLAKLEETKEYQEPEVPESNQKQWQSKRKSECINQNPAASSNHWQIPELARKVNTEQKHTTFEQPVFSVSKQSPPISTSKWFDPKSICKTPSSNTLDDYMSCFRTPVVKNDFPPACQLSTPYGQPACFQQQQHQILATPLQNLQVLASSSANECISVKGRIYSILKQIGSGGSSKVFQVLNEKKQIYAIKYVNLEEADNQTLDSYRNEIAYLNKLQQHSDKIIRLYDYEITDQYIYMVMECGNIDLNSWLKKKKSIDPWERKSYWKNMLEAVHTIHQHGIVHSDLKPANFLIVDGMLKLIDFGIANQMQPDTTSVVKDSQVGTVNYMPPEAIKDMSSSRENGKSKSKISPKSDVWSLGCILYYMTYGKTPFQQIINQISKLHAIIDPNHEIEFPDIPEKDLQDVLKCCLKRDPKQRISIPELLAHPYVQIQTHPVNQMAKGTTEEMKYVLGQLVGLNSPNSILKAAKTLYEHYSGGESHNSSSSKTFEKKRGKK

## CN1C(=O)c2ccccc2N(C)c2nc(NS(=O)(=O)c3ccc(N)cc3)ncc21
[1]
  kinase still bound, per cent of control: 100%
[2]
  kinase still bound, per cent of control: 96%
[3]
  kinase still bound, per cent of control: 95%
[4]
  kinase still bound, per cent of control: 69%
[5]
  kinase still bound, per cent of control: 100%
[6]
  kinase still bound, per cent of control: 100%
[7]
  kinase still bound, per cent of control: 100%
[8]
  kinase still bound, per cent of control: 100%
[9]
  kinase still bound, per cent of control: 100%
[10]
  kinase still bound, per cent of control: 78%
[11]
  kinase still bound, per cent of control: 86%
[12]
  kinase still bound, per cent of control: 100%
[13]
  kinase still bound, per cent of control: 100%
[14]
  kinase still bound, per cent of control: 100%
[15]
  kinase still bound, per cent of control: 97%
[16]
  kinase still bound, per cent of control: 82%
[17]
  kinase still bound, per cent of control: 90%
[18]
  kinase still bound, per cent of control: 100%
[19]
  kinase still bound, per cent of control: 100%
[20]
  kinase still bound, per cent of control: 100%
[21]
  kinase still bound, per cent of control: 100%
[22]
  kinase still bound, per cent of control: 100%
[23]
  kinase still bound, per cent of control: 100%
[24]
  kinase still bound, per cent of control: 100%
[25]
  kinase still bound, per cent of control: 100%
[26]
  kinase still bound, per cent of control: 100%
[27]
  kinase still bound, per cent of control: 87%
[28]
  kinase still bound, per cent of control: 72%
[29]
  kinase still bound, per cent of control: 100%
[30]
  kinase still bound, per cent of control: 100%
[31]
  kinase still bound, per cent of control: 100%
[32]
  kinase still bound, per cent of control: 100%
[33]
  kinase still bound, per cent of control: 100%
[34]
  kinase still bound, per cent of control: 100%
[35]
  kinase still bound, per cent of control: 80%
[36]
  kinase still bound, per cent of control: 93%
[37]
  kinase still bound, per cent of control: 100%
[38]
  kinase still bound, per cent of control: 95%
[39]
  kinase still bound, per cent of control: 100%
[40]
  kinase still bound, per cent of control: 100%
[41]
  kinase still bound, per cent of control: 76%
[42]
  kinase still bound, per cent of control: 100%

## CN1C(=O)c2ccccc2N(C)c2nc(Nc3ccc(N4CCC(O)CC4)cc3)ncc21
[1]
  kinase still bound, per cent of control: 75%
[2]
  kinase still bound, per cent of control: 63%
[3]
  kinase still bound, per cent of control: 28%
[4]
  kinase still bound, per cent of control: 82%
[5]
  kinase still bound, per cent of control: 75%
[6]
  kinase still bound, per cent of control: 100%
[7]
  kinase still bound, per cent of control: 73%
[8]
  kinase still bound, per cent of control: 66%
[9]
  kinase still bound, per cent of control: 52%
[10]
  kinase still bound, per cent of control: 100%
[11]
  kinase still bound, per cent of control: 100%
[12]
  kinase still bound, per cent of control: 100%
[13]
  kinase still bound, per cent of control: 0.95%
[14]
  kinase still bound, per cent of control: 43%
[15]
  kinase still bound, per cent of control: 1.8%
[16]
  kinase still bound, per cent of control: 77%
[17]
  kinase still bound, per cent of control: 80%
[18]
  kinase still bound, per cent of control: 13%
[19]
  kinase still bound, per cent of control: 100%
[20]
  kinase still bound, per cent of control: 100%
[21]
  kinase still bound, per cent of control: 84%
[22]
  kinase still bound, per cent of control: 88%
[23]
  kinase still bound, per cent of control: 100%
[24]
  kinase still bound, per cent of control: 69%
[25]
  kinase still bound, per cent of control: 80%
[26]
  kinase still bound, per cent of control: 1.4%
[27]
  kinase still bound, per cent of control: 24%
[28]
  kinase still bound, per cent of control: 1.2%
[29]
  kinase still bound, per cent of control: 82%
[30]
  kinase still bound, per cent of control: 85%
[31]
  kinase still bound, per cent of control: 48%
[32]
  kinase still bound, per cent of control: 67%
[33]
  kinase still bound, per cent of control: 100%
[34]
  kinase still bound, per cent of control: 78%
[35]
  kinase still bound, per cent of control: 80%
[36]
  kinase still bound, per cent of control: 91%
[37]
  kinase still bound, per cent of control: 100%
[38]
  kinase still bound, per cent of control: 79%
[39]
  kinase still bound, per cent of control: 100%
[40]
  kinase still bound, per cent of control: 100%
[41]
  kinase still bound, per cent of control: 61%
[42]
  kinase still bound, per cent of control: 100%
